Assays:
3T3-L1 adipocytes [1] = experiment: Endogenous GLUT4 accumulation in the TIRF zone (fixed adipocytes); assay type: cell-based, mouse; settings: 100 nM insulin; scrambled siRNA
Experimental: FIG. 2, panels A-C show knockdown of CDP138 in 3T3-L1 adipocytes inhibits insulin-stimulated glucose transport (A) and myc-GLUT4-GFP translocation (B), but not endogenous GLUT4 movement to the periphery detected in TIRF zone (C). (A): Differentiated adipocytes at day 5 were transfected with siRNAs against mouse 5730419I09Rik or the scrambled siRNA (Scr) as described earlier (Jiang et al., 2003) for 60 hrs, then serum starved overnight. Cells were then treated with or without insulin (1 nM and 100 nM) for 30 min for the glucose uptake assay, or 15 min for immunoblotting of CDP138, pAkt, Akt and β-actin. […] Cell surface Myc-GLUT4-GFP was detected with anti-myc monoclonal Ab (9E10) and Alexa Fluor 568-labeled goat anti-mouse IgG in non-permeablized cells. The Myc signal and GFP signal were quantified as previously described (Jiang et al., 2002). […] GLUT4 was detected with a goat anti-GLUT4 Ab and Alexa Fluor 488-conjugated donkey anti-goat Ab in permeabilized cells. […] We also quantified endogenous GLUT4 redistribution to the PM using total internal reflection fluorescence microscopy (TIRFM) with a setting of about 100 nm distance from the coverslip (FIG. 2C, top panel). For this experiment, endogenous GLUT4 was detected by immunofluorescent staining with a goat anti-GLUT4 Ab that recognizes the cytoplasmic C-terminus of GLUT4. […]

3T3-L1 adipocytes [2] = experiment: GSV-PM fusion in live adipocytes (IRAP-pHluorin, TIRF microscopy); assay type: cell-based, mouse
Description: FIG. 3, panels A-C, show knockdown of CDP138 in live 3T3-L1 adipocytes inhibits insulin-stimulated membrane fusion between GLUT4 storage vesicles (GSV) and the PM, but not GLUT4-EGFP trafficking to the TIRF zone. (A): Schematic illustration of the molecular probes and TIRF microcopy-based live cell assays for GLUT4 trafficking and GSV-PM fusion. (B) and (C): The effect of CDP138 knockdown on insulin-stimulated IRAP-pHluorin insertion into the PM (B), and accumulation of GLUT4-EGFP in the TIRF zone (C). Adipocytes (day 4) were transfected by electroporation with plasmid DNA encoding IRAP-pHluorin or GLUT4-EGFP, together with either the scrambled siRNA or smartPool siRNA against mouse 5730419I09Rik. Cells were reseeded on glass-bottomed dishes for 72 hrs, serum starved for 2 hr then stimulated with 100 nM insulin for 30 min. Analyses were performed in a cell warmer adapted for a Nikon TiE with fully motorized combined dual laser (488 and 561 nm). Images were acquired every 3 min immediately after addition of insulin and analyzed as described in the Supplementary Experimental Procedures. Perfect focus system and multiple points capture program (NIS Element) were used to acquire images from multiple positively transfected cells at each time point. […]
Total Internal Reflection Fluorescence (TIRF) Microscopy: Nikon (Melville, N.Y.) TI-TIRF-E, which was based on the objective lens method, was used to perform all the TIRF experiments. […] Positively transfected adipocytes were identified, and the insulin-stimulated IRAP vesicle-PM fusion events or GLUT4-EGFP trafficking to the TIRF zone were recorded every 3 min for a 30 min period using Nikon Eclipse-Ti TIRF microscope. […]
Image Analysis and Quantification: TIRF and wide field fluorescence microscopy were performed using a Nikon inverted microscope (Melville, N.Y.) with a cooled charge-coupled device camera. […]

insulin
enhancement of GLUT4 signal in the TIRF zone (3T3-L1 adipocytes [1]): about 2.5 fold | stimulation of GSV fusion with the PM in the TIRF zone (3T3-L1 adipocytes [2]): significantly stimulates

Reference: patent US20120204273A1, “COMPOSITIONS RELATING TO A PHOSPHOPROTEIN AND METHODS OF USE” (SANFORD-BURNHAM MEDICAL RESEARCH INSTITUTE, priority 2010, published 2012)
